Data published in US4963573A, “[[[(3-pyridinyl)methylen]amino]oxy]alkanoic acids and esters” (Janssen Pharmaceutica N.V., priority 1989, dated 1990).
Read-outs that look alike come from different tables or passages of the source.

Experiments:
[1] = system: thromboxane A2 biosynthesis; test: Platelet malondialdehyde (MDA) production in vivo, male Wistar rats; conditions: Rattus norvegicus, read-out: MDA production in vivo ED50-values
Procedure: MDA production by platelets in plasma, as an indicator of the thromboxane A2 biosynthesis, was evaluated spectrofluometrically. […] After 30 min at 37° C., the reaction was terminated by the addition of 1 ml of 10% (w/v) trichloroacetic acid. […] The fluorescence of the samples at 553 nm after excitation at 510 nm was measured. The results were calculated as nM MDA/10^8 platelets/30 min and were expressed as a percentage inhibition produced by the compounds relative to the formation of MDA after thrombin stimulation in the solvent. For in vitro experiments, human platelets in plasma were used. Percentage inhibition was calculated versus the solvent value.
For in vivo experiments male Wistar rats were fasted overnight. 2 Hours before blood sampling they were treated with the test compound solution/suspension or the solvent. […] ED50 -values were determined by probit analysis.

[2] = system: thromboxane A2 biosynthesis; test: Platelet malondialdehyde (MDA) production in vitro, human platelets in plasma, thrombin stimulated; assay type: cell-based; conditions: human platelet-rich plasma, thrombin 20 N.I.H. U/ml, 10 min pre-incubation at 37° C., 30 min reaction, 50% inhibition vs solvent
Procedure: MDA production by platelets in plasma, as an indicator of the thromboxane A2 biosynthesis, was evaluated spectrofluometrically. […] After 30 min at 37° C., the reaction was terminated by the addition of 1 ml of 10% (w/v) trichloroacetic acid. After isolation of the supernatant by centrifugation at 320 g for 20 min, the thiobarbituric acid reaction for MDA was performed using acid-hydrolyzed 1,1,3,3-tetramethoxypropane as a standard. The fluorescence of the samples at 553 nm after excitation at 510 nm was measured. The results were calculated as nM MDA/10^8 platelets/30 min and were expressed as a percentage inhibition produced by the compounds relative to the formation of MDA after thrombin stimulation in the solvent. For in vitro experiments, human platelets in plasma were used. Percentage inhibition was calculated versus the solvent value.

[3] = male Wistar rats fasted overnight, treated 2 hours before blood sampling, 50% inhibition relative to MDA values with solvent, probit analysis

Structure (SMILES)	IC50 [2]	ED50 [1, 3]	ED50 ([1]; 2 h)	IC50 ([2]; Homo sapiens, Platelet)
O=C(O)CCCCON=C(c1cccnc1)c1cccc2ccccc12 [Compound 74]	23 nM	0.023 mg/kg	–	–
O=C(O)CCCCO/N=C(/c1cccnc1)c1cccc2ccccc12 [Compound 93, (E)-5-[[[(1-naphthalenyl)(3-pyridinyl)methylen]amino]oxy]pentanoic acid]	10 nM	0.014 mg/kg	–	–
O=C(O)CCCCO/N=C(/c1cccnc1)c1cccs1 [Compound 76]	120 nM	0.068 mg/kg	–	–
O=C(O)CCCCON=C(c1cccnc1)c1ccc2ccccc2c1 [Compound 78]	240 nM	0.044 mg/kg	–	–
O=C(O)CCCCO/N=C(/c1cccnc1)c1cccc(C(F)(F)F)c1 [Compound 63, (E)-5-[[[(3-pyridinyl)[3-(trifluoromethyl)phenyl]methylen]amino]oxy]pentanoic acid]	22 nM	0.012 mg/kg	–	–
O=C(O)CCCCO/N=C(\c1ccccc1)c1cccnc1 [Compound 65]	66 nM	0.045 mg/kg	–	–
O=C(O)CCCCO/N=C(\Cc1ccccc1)c1cccnc1 [Compound 68]	75 nM	1 mg/kg	–	–
O=C([O-])CCCCO/N=C(/c1cccnc1)c1cccc(C(F)(F)F)c1.[Na+] [Compound 121, sodium (E)-5-[[[(3-pyridinyl)[3-(trifluoromethyl)phenyl]methylen]amino]oxy]pentanoate]	–	–	0.015 mg/kg	14 nM
O=C(O)CCCCON=C(c1cccnc1)c1cccnc1 [Compound 70]	180 nM	1.2 mg/kg	–	–
O=C(O)CCCCO/N=C(/c1cccnc1)c1cccc2ccccc12 [Compound 123, sodium (E)-5-[[[(1-naphthalenyl)(3-pyridinyl)methylen]amino]oxy]pentanoate]	–	–	–	18 nM
O=C(O)CCCCO/N=C(/c1cccnc1)c1cc(C(F)(F)F)cc(C(F)(F)F)c1 [Compound 92]	33 nM	0.01 mg/kg	–	–
O=Cc1cccc(C(=NOCCCCC(=O)O)c2cccnc2)c1 [Compound 116, (E+Z)-5-[[[(3-formylphenyl)(3-pyridinyl)methylen]amino]oxy]pentanoic acid]	100 nM	–	–	–
O=C([O-])CCCCO/N=C(\c1ccccc1)c1cccnc1.[Na+] [Compound 122, sodium (E)-5-[[[phenyl(3-pyridinyl)methylen]amino]oxy]pentanoate]	–	–	< 0.16 mg/kg	81 nM
CCCC/C(=N\OCCCCC(=O)O)c1cccnc1 [Compound 86]	63 nM	> 0.16 mg/kg	–	–
Cc1cccc(C(=NOCCCCC(=O)O)c2cccnc2)c1 [Compound 89]	43 nM	0.02 mg/kg	–	–

Continued, in another order:

IC50 [2]	Structure (SMILES)	ED50 [1, 3]	ED50 ([1]; 2 h)	IC50 ([2]; Homo sapiens, Platelet)
24 nM	COC(OC)c1ccccc1/C(=N\OCCCCC(=O)O)c1cccnc1 [Compound 87]	> 0.16 mg/kg	–	–
300 nM	O=C(O)CCCCON=C(c1ccc(F)cc1)c1cccnc1 [Compound 73]	0.2 mg/kg	–	–
120 nM	Cc1ccc(C(=NOCCCCC(=O)O)c2cccnc2)cc1 [Compound 72]	0.041 mg/kg	–	–
100 nM	O=C(O)CCCCON=C(c1ccccc1)c1cccnc1 [Compound 4, (E+Z)-5-[[[phenyl(3-pyridinyl)methylen]amino]oxy]pentanoic acid]	0.059 mg/kg	–	–
32 nM	O=C(O)CCCCON=C(c1cccnc1)c1ccccc1C(F)(F)F [Compound 94]	–	–	–
24 nM	Cc1cccc(/C(=N\OCCCCC(=O)O)c2cccnc2)c1 [Compound 90, (E)-5-[[[(3-methylphenyl)(3-pyridinyl)methylen]amino]oxy]pentanoic acid]	0.013 mg/kg	–	–
100 nM	COc1ccc(C(=NOCCCCC(=O)O)c2cccnc2)cc1 [Compound 69]	0.17 mg/kg	–	–
< 100 nM	CCOC(=O)CCCCO/N=C(\c1ccccc1)c1cccnc1 [Compound 9]	–	–	–
110 nM	COc1ccc(C(=NOCCCCC(=O)O)c2cccnc2)cc1OC [Compound 82]	0.056 mg/kg	–	–
110 nM	O=C(O)CCCCO/N=C(/c1cccnc1)c1ccsc1 [Compound 84]	0.17 mg/kg	–	–
